Experimental data taken from ChEMBL document CHEMBL1221203, “Modern synthetic efforts toward biologically active terpenes” (Nat Chem Biol, 2007).

Tested on: Human immunodeficiency virus
Assay: Antiviral activity against HIV replication in human H9 cells
Format: functional, organism-based
Conditions: Human immunodeficiency virus 1, H9

EC50: 25 nM
SMILES: C[C@]12CCC[C@]3(C(=O)OC1)[C@@H]2CC[C@@]12C[C@@H](CC[C@H]13)[C@](C)(O)C2 [NEOTRIPTERIFORDIN]
